Measurements published in publication PMC11671526, “β-caryophyllene sensitizes hepatocellular carcinoma cells to chemotherapeutics and inhibits cell malignancy through targeting MAPK signaling pathway” (Frontiers in Pharmacology, 2024).

Test system: HepG2 cells
Experiment: RNA-seq transcriptome analysis of differentially expressed genes
Format: cell-based, human
Method: The quality and concentration of RNA were examined by MOPS RNA electrophoresis and Eppendorf BioSpectrometer. The transcriptome analysis was performed by BGI-Wuhan China. The RNA-seq dataset of this study is accessible in the Gene Expression Omnibus (GEO) with an access number of GSE276099. The sequence library for each sample was prepared using the BGISEQ-500 platform with a 50-bp single-end (SE50) format. […]2.2.1) was used to align the clean reads to the reference genome and alignment of the clean reads to the reference genes was carried out using Bowtie2 (v2.4.5) ([Langmead and Salzberg, 2012]; [Kim et al., 2015]). Gene expression levels were calculated by RSEM (v1.3.1) ([Li and Dewey, 2011]). Analysis of differential gene expression was performed using edgeR in the Bioconductor software package ([Robinson et al., 2010]). Using a standard protocol, the RNA samples were also examined by reverse transcription and quantitative polymerase chain reaction (RT-qPCR). In brief, for reverse transcription, total RNA (1 μg) and gDNA wiper Mix were incubated at 42°C for 2 min. The samples were immediately incubated with a master mix containing 10 pmol/μL of poly (dT) primers at 37°C for 15 min and 85°C for 5 s. To detect the expression of specific genes by qPCR analysis, gene-specific primers (shown in Supplementary Table S1) were mixed with the ChamQ Universal SYBER qPCR Master Mix and the reaction was conducted using the Roche Lightcycler 480. The GAPDH value was used to normalize the results of each gene. The RNA-seq data of BCP-treated HepG2 cells were screened for DEGs. Gene symbols were turned into Enterz ID using the org.Hs.eg.db Bio-conductor R package. The cluster profiler (v4.6.2) package was used to perform the Kyoto Encyclopedia of Genes and Genomes (KEGG) and Gene Ontology (GO) enrichment analyses ([Wu et al., 2021]). Following the Transcript per million (TPM) data of the dataset, the line chart, and heatmap were plotted using ggplot2 and pheatmap R packages, respectively.

[1] = HepG2, 150 µM BCP 24 h vs ethanol, RNA-seq DEG
[2] = HepG2, 150 µM BCP 24 h vs ethanol, FDR ≤ 0.05, 1.5-fold change

Structure (SMILES): C=C1CC/C=C(\C)CC[C@@H]2[C@@H]1CC2(C)C [BCP, β-caryophyllene]
- TSHZ2 logFC (BCP vs control HepG2, RNA-seq): 0.586
- TSPAN18 change (BCP vs control HepG2, RNA-seq): Up
- TSPAN18 logFC (BCP vs control HepG2, RNA-seq): 0.6055
- TTC21A change (BCP vs control HepG2, RNA-seq): Up
- TTC21A logFC (BCP vs control HepG2, RNA-seq): 1.034
- TTC30B change (BCP vs control HepG2, RNA-seq): Up
- TTC30B logFC (BCP vs control HepG2, RNA-seq): 1.0891
- TYW1B change (BCP vs control HepG2, RNA-seq): Down
- TYW1B logFC (BCP vs control HepG2, RNA-seq): -0.7579
- VEPH1 change (BCP vs control HepG2, RNA-seq): Up
- VEPH1 logFC (BCP vs control HepG2, RNA-seq): 0.6882
- WASF3 change (BCP vs control HepG2, RNA-seq): Down
- WASF3 logFC (BCP vs control HepG2, RNA-seq): -1.027
- WDR86 change (BCP vs control HepG2, RNA-seq): Down
- WDR86 logFC (BCP vs control HepG2, RNA-seq): -0.8076
- ZNF165 change (BCP vs control HepG2, RNA-seq): Up
- ZNF165 logFC (BCP vs control HepG2, RNA-seq): 0.918
- ZNF284 change (BCP vs control HepG2, RNA-seq): Down
- ZNF284 logFC (BCP vs control HepG2, RNA-seq): -0.7229
- ZNF341 change (BCP vs control HepG2, RNA-seq): Down
- ZNF341 logFC (BCP vs control HepG2, RNA-seq): -0.6282
- ADORA2A expression change (BCP_treatment) [1]: Down
- ADRA2C expression change (BCP_treatment) [1]: Down
- ALYREF expression change (BCP_treatment) [1]: Down
- ANK1 expression change (BCP_treatment) [1]: Down
- ANKFN1 expression change (BCP_treatment) [1]: Down
- ARTN expression change (BCP_treatment) [1]: markedly downregulated and Down
- B3GNT4 expression change (BCP_treatment) [1]: Down
- BICDL1 expression change (BCP_treatment) [1]: Down
- BOC expression change (BCP_treatment) [1]: Down
- BOLA2B expression change (BCP_treatment) [1]: Down
- CA5B expression change (BCP_treatment) [1]: Down
- CACNA1E expression change (BCP_treatment) [1]: markedly downregulated and Down
- CAMK2N2 expression change (BCP_treatment) [1]: Down
- CCDC86 expression change (BCP_treatment) [1]: Down
- CCL26 expression change (BCP_treatment) [1]: Down
- CHST6 expression change (BCP_treatment) [1]: Down
- CLIP2 expression change (BCP_treatment) [1]: Down
- CYP26B1 expression change (BCP_treatment) [1]: Down
- DPF1 expression change (BCP_treatment) [1]: Down
- EN2 expression change (BCP_treatment) [1]: Down
- FAM222A expression change (BCP_treatment) [1]: Down
- FBXL22 expression change (BCP_treatment) [1]: Down
- FBXO27 expression change (BCP_treatment) [1]: Down
- FBXO44 expression change (BCP_treatment) [1]: Down
- FRMD3 expression change (BCP_treatment) [1]: Down
- FUT3 expression change (BCP_treatment) [1]: Down
- GBP2 expression change (BCP_treatment) [1]: Down
- GNAZ expression change (BCP_treatment) [1]: Down
- H1-2 expression change (BCP_treatment) [1]: Down
- H2BC11 expression change (BCP_treatment) [1]: Down
- H2BC12 expression change (BCP_treatment) [1]: Down
- H3C6 expression change (BCP_treatment) [1]: Down
- H4C8 expression change (BCP_treatment) [1]: Down
- HPDL expression change (BCP_treatment) [1]: Down
- ISYNA1 expression change (BCP_treatment) [1]: Down
- KCNH3 expression change (BCP_treatment) [1]: Down
- KHDC1 expression change (BCP_treatment) [1]: Down
- LYSMD4 expression change (BCP_treatment) [1]: Down
- MAFA expression change (BCP_treatment) [1]: Down
- MAGEB17 expression change (BCP_treatment) [1]: Down
- MAP1A expression change (BCP_treatment) [1]: Down
- MNX1 expression change (BCP_treatment) [1]: Down
- MYB expression change (BCP_treatment) [1]: Down
- MYEOV expression change (BCP_treatment) [1]: Down
- NES expression change (BCP_treatment) [1]: Down
- NR6A1 expression change (BCP_treatment) [1]: Down
- PAQR5 expression change (BCP_treatment) [1]: Down
- PGF expression change (BCP_treatment) [1]: markedly downregulated and Down
- PI3 expression change (BCP_treatment) [1]: Down
- RAPGEF3 expression change (BCP_treatment) [1]: Down
- RASD2 expression change (BCP_treatment) [1]: Down
- RHBDL3 expression change (BCP_treatment) [1]: Down
- S100A3 expression change (BCP_treatment) [1]: Down
- SCIN expression change (BCP_treatment) [1]: Down
- SHC3 expression change (BCP_treatment) [1]: Down
- SLC4A11 expression change (BCP_treatment) [1]: Down
- SP6 expression change (BCP_treatment) [1]: Down
- STXBP6 expression change (BCP_treatment) [1]: Down
- SYN3 expression change (BCP_treatment) [1]: Down
- TMEM120B expression change (BCP_treatment) [1]: Down
- TMEM158 expression change (BCP_treatment) [1]: Down
- TNFSF15 expression change (BCP_treatment) [1]: Down
- TRNP1 expression change (BCP_treatment) [1]: Down
- VAMP1 expression change (BCP_treatment) [1]: Down
- ZBED6CL expression change (BCP_treatment) [1]: Down
- ZNF284 expression change (BCP_treatment) [1]: Down
- ZNF341 expression change (BCP_treatment) [1]: Down
- number of downregulated genes [2]: 245
- number of upregulated genes [2]: 188
- total number of DEGs [2]: 433
- logFC ABLIM2 (gene ABLIM2, BCP vs control HepG2, RNA-seq): 1.01
- change ABLIM2 (gene ABLIM2, DEG direction, BCP vs control HepG2): Up
- logFC ACKR3 (gene ACKR3, BCP vs control HepG2, RNA-seq): 0.6675
- change ACKR3 (gene ACKR3, DEG direction, BCP vs control HepG2): Up
- logFC ACYP2 (gene ACYP2, BCP vs control HepG2, RNA-seq): -0.6093
- change ACYP2 (gene ACYP2, DEG direction, BCP vs control HepG2): Down
- logFC ADGRD1 (gene ADGRD1, BCP vs control HepG2, RNA-seq): 0.8304
- change ADGRD1 (gene ADGRD1, DEG direction, BCP vs control HepG2): Up
- logFC ADGRG6 (gene ADGRG6, BCP vs control HepG2, RNA-seq): 0.7321
- change ADGRG6 (gene ADGRG6, DEG direction, BCP vs control HepG2): Up
- logFC AKR1B1 (gene AKR1B1, BCP vs control HepG2, RNA-seq): -0.8932
- change AKR1B1 (gene AKR1B1, DEG direction, BCP vs control HepG2): Down
- logFC ALDH1L2 (gene ALDH1L2, BCP vs control HepG2, RNA-seq): 0.8642
- change ALDH1L2 (gene ALDH1L2, DEG direction, BCP vs control HepG2): Up
- logFC ALPI (gene ALPI, BCP vs control HepG2, RNA-seq): 0.9718
- change ALPI (gene ALPI, DEG direction, BCP vs control HepG2): Up
- logFC ALPL (gene ALPL, BCP vs control HepG2, RNA-seq): 1.081
- change ALPL (gene ALPL, DEG direction, BCP vs control HepG2): Up
- logFC ALYREF (gene ALYREF, BCP vs control HepG2, RNA-seq): -0.7733
- change ALYREF (gene ALYREF, DEG direction, BCP vs control HepG2): Down
- logFC AMPD2 (gene AMPD2, BCP vs control HepG2, RNA-seq): -0.8008
- change AMPD2 (gene AMPD2, DEG direction, BCP vs control HepG2): Down
- logFC ANKFN1 (gene ANKFN1, BCP vs control HepG2, RNA-seq): -1.752
- change ANKFN1 (gene ANKFN1, DEG direction, BCP vs control HepG2): Down
- logFC ANO2 (gene ANO2, BCP vs control HepG2, RNA-seq): 1.524
- change ANO2 (gene ANO2, DEG direction, BCP vs control HepG2): Up
